In PubChem BioAssay AID2060890 (Molecular Pharmacology Branch, DTP, NCI, 2025) one finds IC50 and viability, T/C data, which are given here for 2 compounds.

In this assay the test system is LG0703-F948-PDC complex spheroid viability. The assay can be described thus: Anticancer human tumor LG0703-F948-PDC patient-derived lung adenocarcinoma cell line growth inhibition [RAS]. To be noted: for viability, T/C: stronger effect = lower value. The source says:
RAS pathway inhibitors in Combinations in Complex Spheroids
A high-throughput screen of multi-cell type tumor spheroids was designed to identify active combinations of RAS pathway inhibitors and targeted small molecules. Complex spheroids include a stromal component modeled by human endothelial cells (HUVEC) and fibroblasts modeled by human mesenchymal stem cells (MSCs). The concentration ranges selected for each drug and investigational agent were based upon clinically achievable concentrations if the clinical Cmax of the agent was known.
Compounds. The drugs and investigational agents: abemaciclib (NSC768073), cobimetinib (NSC768068), divarasib (GDC6063, NSC841802), docetaxel (NSC628503), GDC-1971 (RLY-1971, NSC841576), gemcitabine (NSC613327), inavolisib (NSC800729), ipatasertib (NSC767898), KB-0742 (NSC834161), MRTX-1133 (NSC836407), osimertinib (NSC779217), RMC-4630 (NSC839698), RMC-6236 (NSC851965), RMC-6291 (NSC852671), Ro-3306 (NSC812927), sapanisertib (NSC764658), SN-38 (NSC673596), staurosporine (NSC755774), SY5609 (NSC837396), and tovorafenib (DAY101, NSC766906), were obtained from the National Cancer Institute (NCI) Developmental Therapeutics Program Chemical Repository. The FDA-approved anticancer drug set is available from the NCI Developmental Therapeutics Program. […] The stock solutions were prepared in dimethyl sulfoxide (DMSO, Sigma-Aldrich, St. Louis, MO, cat. D2650) at 800-fold the tested concentration and stored at -70 degrees C prior to their use. All drugs and investigational agents were tested over a range starting from a high concentration at or near the clinical Cmax and decreasing in half-log increments. If the clinical Cmax for an agent had not been determined, the highest concentration tested was 10 microM.
Cell Culture. All cells were maintained in an incubator at 37 degrees C and 5% CO2 with 95% humidity. The PDC lines were cultured according to standard operating procedures established by the NCI PDMR. All PDCs were thawed and cultured in Matrigel-coated flasks prepared with a working solution of 1X Ham's F-12 nutrient mix, without supplementation (Invitrogen, Waltham, MA, cat. 11765054), 100 U/mL penicillin-streptomycin (Invitrogen, cat. 15140122), and 2.5% Matrigel (Corning Inc., Corning, NY, cat. 354248) for the first three passages. The 362531-283-R-J2-PDC and 782815-120-R-J1-PDC lines were cultured in 6C/Colon 1B media, which includes advanced DMEM/F-12 (Thermo Fisher Scientific, cat. 12634028), 10 mM HEPES (Thermo Fisher Scientific, cat. 15630080), 1X GlutaMAX supplement (Thermo Fisher Scientific, cat. 35050061), 0.1 mg/mL primocin (InvivoGen, San Diego, CA, cat. ant-pm-2), 10% defined fetal bovine serum, heat inactivated (HyClone Laboratories Inc., Logan, UT, cat. SH30070.03HI), 50% L-WRN conditioned media (ATCC, cat. CRL-3276), 1.25 mM N-Acetyl-L-cysteine (Sigma-Aldrich, cat. A9165), 10 mM nicotinamide (Sigma-Aldrich, cat. N0636), 1X B-27 supplement (Thermo Fisher Scientific, cat. 17504044), 1X N-2 supplement (Thermo Fisher Scientific, cat. 17502048), 50 ng/mL human EGF (Thermo Fisher Scientific, cat. PHG0311), and 10 microM Y-27632 dihydrochloride (Tocris Bioscience, cat. 1254). The K12877-001-R-J1-PDC line was cultured in 6I media, which includes all 6C/Colon 1B media plus 10 ng/mL human FGF-10 (PeproTech, cat. 100-26), 1 ng/mL human FGF-2 (PeproTech, cat. 100-18B), 1 µM prostaglandin E2 (Tocris Bioscience, cat. 2296), […] hydrocortisone (Sigma-Aldrich, cat. H4001), and […] bovine insulin (Sigma-Aldrich, cat. I6634). The K86415-001-R-J1-PDC line was cultured in 6D media, which includes all 6C/Colon 1B media components minus the L-WRN conditioned media. The 485176-168-R4-J1-PDC was cultured in PANC media, which includes all 6C/Colon 1B media plus 100 ng/mL human FGF-10 (PeproTech, cat. 100-26), 500 nM SB-431542 (Selleckchem, cat. S1067), and 10 nM gastrin (Tocris Bioscience, cat. 3006). […]
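Further: spheroids exposed to agents for 7 days.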
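Wherever viability, T/C is given: 100% = DMSO vehicle wells.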

Turning to `CC(Nc1ccc2c(c1)OCCn1cc(N3C(=O)OCC3C(F)F)nc1-2)C(N)=O` (stereo not drawn) + CCn1c(-c2cc(N3CCN(C)CC3)cnc2C(C)OC)c2c3cc(ccc31)-c1csc(n1)CC(NC(=O)C1CC1C)C(=O)N1CCCC(N1)C(=O)OCC(C)(C)C2, the half-maximal inhibitory concentration (IC50) runs as follows: (curve of first compound, second compound 0.000949 µM) 136 nM; (curve of first compound, second compound 0.003 µM) below 31.6 nM; (curve of first compound, second compound 0.00949 µM) below 31.6 nM; (curve of first compound, second compound 0.03 µM) below 31.6 nM; (curve of first compound, second compound 0.0949 µM) below 31.6 nM; (curve of first compound, second compound 0.3 µM) below 31.6 nM. Moreover, the viability, T/C was 66.8% (second compound 0.000949 µM, first compound 0.0316 µM); 55% (second compound 0.000949 µM, first compound 0.1 µM); 37.9% (second compound 0.000949 µM, first compound 0.316 µM); 22.5% (second compound 0.000949 µM, first compound 1 µM); 16.8% (second compound 0.000949 µM, first compound 3.16 µM); 8.97% (second compound 0.000949 µM, first compound 10 µM). Moreover, the viability, T/C was 38.7% (second compound 0.003 µM, first compound 0.0316 µM); 31.1% (second compound 0.003 µM, first compound 0.1 µM); 20.2% (second compound 0.003 µM, first compound 0.316 µM); 12.6% (second compound 0.003 µM, first compound 1 µM); 8.64% (second compound 0.003 µM, first compound 3.16 µM); 3.86% (second compound 0.003 µM, first compound 10 µM). Further, the viability, T/C reads like this: (second compound 0.00949 µM, first compound 0.0316 µM) 20.7%; (second compound 0.00949 µM, first compound 0.1 µM) 16.5%; (second compound 0.00949 µM, first compound 0.316 µM) 7.46%; (second compound 0.00949 µM, first compound 1 µM) 5.56%; (second compound 0.00949 µM, first compound 3.16 µM) 4.28%; (second compound 0.00949 µM, first compound 10 µM) 1.67%. Further, the viability, T/C (second compound 0.03 µM, first compound 0.0316 µM) was 10.8%; the viability, T/C (second compound 0.03 µM, first compound 0.1 µM) is 8.93%; the viability, T/C (second compound 0.03 µM, first compound 0.316 µM) was 4%; the viability, T/C (second compound 0.03 µM, first compound 1 µM) is 3.07%; the viability, T/C (second compound 0.03 µM, first compound 3.16 µM) is 1.45%; the viability, T/C (second compound 0.03 µM, first compound 10 µM) is 1.14%. Further, the viability, T/C by setting is: (second compound 0.0949 µM, first compound 0.0316 µM) 8.21%; (second compound 0.0949 µM, first compound 0.1 µM) 5.47%; (second compound 0.0949 µM, first compound 0.316 µM) 3.07%; (second compound 0.0949 µM, first compound 1 µM) 2.1%; (second compound 0.0949 µM, first compound 3.16 µM) 1.39%; (second compound 0.0949 µM, first compound 10 µM) 0.7%. For the same compound, the viability, T/C runs as follows: (second compound 0.3 µM, first compound 0.0316 µM) 6.47%; (second compound 0.3 µM, first compound 0.1 µM) 4.12%; (second compound 0.3 µM, first compound 0.316 µM) 2.78%; (second compound 0.3 µM, first compound 1 µM) 2.27%; (second compound 0.3 µM, first compound 3.16 µM) 1.25%; (second compound 0.3 µM, first compound 10 µM) 0.71%.

On to `CC(C)NCC(C(=O)N1CCN(c2ncnc3c2C(C)CC3O)CC1)c1ccc(Cl)cc1` (stereo not drawn), for which the viability, T/C was 90.6% [middle of 4 runs] (compound 0.1 µM); 70.8% [middle of 4 runs] (compound 0.316 µM); 48% [middle of 4 runs] (compound 1 µM); 40.3% [middle of 4 runs] (compound 3.16 µM); 32.6% [middle of 4 runs] (compound 10 µM). Also, the IC50 (curve of compound) was 946 nM [middle of 4 runs].

The IC50 is the concentration that gives 50% inhibition. In general, viability, T/C refers to the ratio of treated to control.
